{"source": "ChEMBL document CHEMBL5042526", "about": "“Design, Synthesis, and Biological Evaluation of Triazolone Derivatives as Potent PPARα/δ Dual Agonists for the Treatment of Nonalcoholic Steatohepatitis” (J Med Chem, 2022)", "key": {"[1]": {"target": "T1, Peroxisome proliferator-activated receptor alpha (Mus musculus, UniProt P23204)", "T1 sequence (P23204 whole entry)": "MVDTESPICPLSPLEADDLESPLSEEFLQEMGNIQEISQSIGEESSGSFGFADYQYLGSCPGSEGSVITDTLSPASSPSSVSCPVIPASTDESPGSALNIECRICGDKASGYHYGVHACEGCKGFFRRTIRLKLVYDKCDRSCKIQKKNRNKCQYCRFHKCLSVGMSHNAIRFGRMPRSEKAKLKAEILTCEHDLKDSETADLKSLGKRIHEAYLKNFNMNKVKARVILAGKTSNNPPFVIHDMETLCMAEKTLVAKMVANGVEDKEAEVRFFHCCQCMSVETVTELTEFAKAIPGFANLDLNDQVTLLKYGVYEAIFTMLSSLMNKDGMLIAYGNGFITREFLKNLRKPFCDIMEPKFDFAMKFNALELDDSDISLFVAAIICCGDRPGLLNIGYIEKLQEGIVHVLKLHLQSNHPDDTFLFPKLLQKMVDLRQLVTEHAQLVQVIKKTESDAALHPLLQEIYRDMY", "assay": "Agonist activity at mouse PPARalpha transfected in Cos7 cells co-expressing with pBIND and pGL4.35 Gal4 UAS Luc reporter plasmid by measuring luciferase activity incubated for 16 hrs by luciferase reporter gene assay"}, "HepG2 [2]": {"tested_on": "HepG2", "assay": "Agonist activity against PPARalpha/delta (unknown origin) assessed as upregulation of CPT1A mRNA expression in human HepG2 cells incubated for 12 hrs by RT-PCR analysis", "assay_type": "cell-based", "details": "filed as agonist, dose 8-200 nM"}, "HepG2 [3]": {"tested_on": "HepG2", "assay": "Agonist activity against PPARalpha/delta (unknown origin) assessed as upregulation of CPT1A mRNA expression in human HepG2 cells at 8 nM incubated for 12 hrs by RT-PCR analysis", "assay_type": "cell-based", "details": "filed as agonist"}, "Mus musculus [4]": {"tested_on": "Mus musculus", "assay": "In vivo agonist activity at PPARalpha/delta assessed as upregulation of […] mRNA expression in C57BL/6Nifdc mouse liver at 10 mg/kg, po for 4 days", "assay_type": "functional, organism-based", "details": "time 4.0 day"}, "Mus musculus [5]": {"tested_on": "Mus musculus", "assay": "In vivo agonist activity at PPARalpha/delta assessed as upregulation of Hmgcs2 mRNA expression in C57BL/6Nifdc mouse liver at 10 mg/kg, po for 4 days", "assay_type": "functional, organism-based", "details": "time 4.0 day"}, "Mus musculus [6]": {"tested_on": "Mus musculus", "assay": "In vivo agonist activity at PPARalpha/delta assessed as upregulation of Cpt2 mRNA expression in C57BL/6Nifdc mouse liver at 10 mg/kg, po for 4 days", "assay_type": "functional, organism-based", "details": "time 4.0 day"}, "Mus musculus [7]": {"tested_on": "Mus musculus", "assay": "In vivo agonist activity at PPARalpha/delta assessed as upregulation of -Grhpr mRNA expression in C57BL/6Nifdc mouse liver at 10 mg/kg, po for 4 days", "assay_type": "functional, organism-based", "details": "time 4.0 day"}, "Mus musculus [8]": {"tested_on": "Mus musculus", "assay": "In vivo agonist activity at PPARalpha/delta assessed as upregulation of -Ehhadh mRNA expression in C57BL/6Nifdc mouse liver at 10 mg/kg, po for 4 days", "assay_type": "functional, organism-based", "details": "time 4.0 day"}, "Mus musculus [9]": {"tested_on": "Mus musculus", "assay": "In vivo agonist activity at PPARalpha/delta assessed as upregulation of Pex11a mRNA expression in C57BL/6Nifdc mouse liver at 10 mg/kg, po for 4 days", "assay_type": "functional, organism-based", "details": "time 4.0 day"}, "Mus musculus [10]": {"tested_on": "Mus musculus", "assay": "In vivo agonist activity against PPARalpha/delta assessed as upregulation of Ucp3 mRNA expression in C57BL/6Nifdc mouse liver at 10 mg/kg, po for 4 days", "assay_type": "functional, organism-based", "details": "time 4.0 day"}, "Mus musculus [11]": {"tested_on": "Mus musculus", "assay": "In vivo agonist activity against PPARalpha/delta assessed as upregulation of Acs15 mRNA expression in C57BL/6Nifdc mouse liver at 10 mg/kg, po for 4 days", "assay_type": "functional, organism-based", "details": "time 4.0 day"}, "Mus musculus [12]": {"tested_on": "Mus musculus", "assay": "In vivo agonist activity against PPARalpha/delta assessed as upregulation of Aldh3a2 mRNA expression in C57BL/6Nifdc mouse liver at 10 mg/kg, po for 4 days", "assay_type": "functional, organism-based", "details": "time 4.0 day"}, "Mus musculus [13]": {"tested_on": "Mus musculus", "assay": "In vivo agonist activity against PPARalpha/delta assessed as upregulation of Pex11a mRNA expression in C57BL/6Nifdc mouse skeletal muscle at 10 mg/kg, po for 4 days", "assay_type": "functional, organism-based", "details": "time 4.0 day"}, "Mus musculus [14]": {"tested_on": "Mus musculus", "assay": "In vivo agonist activity against PPARalpha/delta assessed as upregulation of Nfkbia-mRNA expression in C57BL/6Nifdc mouse skeletal muscle at 10 mg/kg, po for 4 days", "assay_type": "functional, organism-based", "details": "time 4.0 day"}, "Mus musculus [15]": {"tested_on": "Mus musculus", "assay": "In vivo agonist activity against PPARalpha/delta assessed as upregulation of -Cidea mRNA expression in C57BL/6Nifdc mouse skeletal muscle at 10 mg/kg, po for 4 days", "assay_type": "functional, organism-based", "details": "time 4.0 day"}, "Mus musculus [16]": {"tested_on": "Mus musculus", "assay": "In vivo agonist activity against PPARalpha/delta assessed as upregulation of Slc25a20 mRNA expression in C57BL/6Nifdc mouse skeletal muscle at 10 mg/kg, po for 4 days", "assay_type": "functional, organism-based", "details": "time 4.0 day"}, "[17]": {"assay": "Microsomal stability in human liver microsomes assessed as terminal elimination half life at 1 uM measured upto 60 mins by LC-MS/MS-11 analysis", "assay_type": "ADME, Microsome"}, "Mus musculus [18]": {"tested_on": "Mus musculus", "assay": "Anti-NASH activity in HF-CDAA-induced nonalcoholic steatohepatitis C57BL/6JNifdc mouse model assessed as reduction in steatosis by measuring hepatic total cholesterol level at 3 to 30 mg/kg, po", "assay_type": "functional, organism-based", "details": "dose 3-30 mg/kg"}, "Mus musculus [19]": {"tested_on": "Mus musculus", "assay": "Anti-inflammatory activity in HF-CDAA-induced nonalcoholic steatohepatitis C57BL/6JNifdc mouse model assessed as decrease in Ccl4 mRNA expression at 10 mg/kg, po", "assay_type": "functional, organism-based"}, "THP-1": {"tested_on": "THP-1", "assay": "Anti-inflammatory activity in human THP1-derived macrophages assessed as decrease in secretion of LPS-induced IL-6 level at 8 to 200 nM for 12 hrs by ELISA kit method", "assay_type": "functional, cell-based", "details": "dose 8-200 nM"}, "Mus musculus [20]": {"tested_on": "Mus musculus", "assay": "Anti-fibrosis effect in CCl4 induced liver fibrosis C57BL/6JNifdc mouse model by measuring serum triglyceride level at 3 to 30 mg/kg, po", "assay_type": "functional, organism-based", "details": "dose 3-30 mg/kg"}, "AML12": {"tested_on": "AML12", "assay": "Agonist activity against PPARalpha/delta (unknown origin) assessed as upregulation of Cpt1A mRNA expression in […] cells incubated for 12 hrs by RT-PCR analysis", "assay_type": "cell-based", "details": "filed as agonist, dose 8-200 nM"}, "C2C12": {"tested_on": "C2C12", "assay": "Agonist activity against PPARalpha/delta (unknown origin) assessed as upregulation of Cpt1A mRNA expression in […] cells at 8 nM incubated for 12 hrs by RT-PCR analysis", "assay_type": "cell-based", "details": "filed as agonist"}, "[21]": {"target": "T2, Peroxisome proliferator-activated receptor alpha (Homo sapiens) (UniProt Q07869)", "T2 sequence (whole entry)": "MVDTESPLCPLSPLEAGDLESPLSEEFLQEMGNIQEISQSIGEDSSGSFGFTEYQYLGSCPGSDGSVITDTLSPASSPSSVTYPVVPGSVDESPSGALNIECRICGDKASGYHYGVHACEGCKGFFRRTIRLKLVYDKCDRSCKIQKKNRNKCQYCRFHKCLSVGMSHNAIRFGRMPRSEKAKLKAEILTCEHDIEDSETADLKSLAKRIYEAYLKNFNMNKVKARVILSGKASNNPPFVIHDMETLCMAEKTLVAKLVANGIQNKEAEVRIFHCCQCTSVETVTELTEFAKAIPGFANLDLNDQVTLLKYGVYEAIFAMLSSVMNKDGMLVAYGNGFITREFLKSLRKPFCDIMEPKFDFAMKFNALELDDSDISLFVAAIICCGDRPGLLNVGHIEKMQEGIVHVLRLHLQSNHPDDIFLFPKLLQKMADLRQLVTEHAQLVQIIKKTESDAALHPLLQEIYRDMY", "details": "filed as agonist, dose 10.0 nM", "description": "Agonist activity at PPARalpha (unknown origin) assessed as maximal activation at 10 nM relative to GW7647"}}, "note": "Activity calls are given as the source filed them. The rule behind the calls is not given here.", "data": [{"smiles": "Cc1cc(Cn2ncn(-c3ccc(OC(F)(F)F)cc3)c2=O)cc(C)c1OC(C)(C)C(=O)O", "values": [{"measurement": "EC50", "setting": "[1]", "result": 16.8, "unit": "nM"}, {"measurement": "Activity", "setting": "HepG2 [2]", "result": "Dose-Dependent Effect"}, {"measurement": "Activity", "setting": "HepG2 [3]", "result": "Active"}, {"measurement": "Activity", "setting": "Mus musculus [4]", "result": "Active"}, {"measurement": "Activity", "setting": "Mus musculus [5]", "result": "Active"}, {"measurement": "Activity", "setting": "Mus musculus [6]", "result": "Active"}, {"measurement": "Activity", "setting": "Mus musculus [7]", "result": "Active"}, {"measurement": "Activity", "setting": "Mus musculus [8]", "result": "Active"}, {"measurement": "Activity", "setting": "Mus musculus [9]", "result": "Active"}, {"measurement": "Activity", "setting": "Mus musculus [10]", "result": "Active"}, {"measurement": "Activity", "setting": "Mus musculus [11]", "result": "Active"}, {"measurement": "Activity", "setting": "Mus musculus [12]", "result": "Active"}, {"measurement": "Activity", "setting": "Mus musculus [13]", "result": "Active"}, {"measurement": "Activity", "setting": "Mus musculus [14]", "result": "Active"}, {"measurement": "Activity", "setting": "Mus musculus [15]", "result": "Active"}, {"measurement": "Activity", "setting": "Mus musculus [16]", "result": "Active"}, {"measurement": "half-life at 1 µM", "setting": "[17]", "result": "> 2", "unit": "h"}, {"measurement": "Activity", "setting": "Mus musculus [18]", "result": "Active"}, {"measurement": "Activity", "setting": "Mus musculus [19]", "result": "Active"}, {"measurement": "Activity", "setting": "THP-1", "result": "Active"}, {"measurement": "Activity", "setting": "Mus musculus [20]", "result": "Active"}, {"measurement": "Activity", "setting": "AML12", "result": "Dose-Dependent Effect"}, {"measurement": "Activity", "setting": "C2C12", "result": "Active"}, {"measurement": "Emax", "setting": "[21]", "result": 110, "unit": "%"}]}]}
